Five compounds from ChEMBL document CHEMBL1201862, “PubChem BioAssay data set” (2004) can be followed below.

Assay in all cases: NCI tumour cell line growth inhibition, 48 h
Experiment [1] has as its system SK-MEL-5.
In experiment [2] the test system is MDA-N.
Experiment [3] has as its system SNB-19.
Experiment [4] concerns HOP-92.
Experiment [5] relates to MCF7.
In experiment [6] the test system is SF-268.
Experiment [7] concerns ACHN.
Experiment [8] relates to HCT-15.
Experiment [9] deals with RPMI-8226.
In experiment [10] the test system is NCI-H522.
The subject of experiment [11] is SK-MEL-2.
Experiment [12] concerns KM12.
Experiment [13] relates to Hs-578T.
Experiment [14] has as its system SF-539.
Experiment [15] relates to A549.
Experiment [16] deals with EKVX.
The subject of experiment [17] is UACC-257.
The test system of experiment [18] is COLO 205.

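All cell lines were grown in 96-well plates and treated with compound for 48 hours. GI50 is the concentration that inhibits growth by half.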 Calls of active or inactive are those of the source. Cut-off read from the data, not from the text of the source: active = GI50 up to about 1.1 µM and inactive = higher. A value given as a limit tells only on which side of the number the result lay.

As to `CCOc1cc(C(c2c(O)c3ccccc3oc2=O)c2c(O)c3ccccc3oc2=O)ccc1OC`, the GI50 is 23.2 µM (inactive) in experiment [1]; 18.1 µM (inactive) in [2]; 23.8 µM (inactive) in [3]; 16.5 µM (inactive) in [4]; 21 µM (inactive) in [5]; 18.9 µM (inactive) in [6]. Further, the GI50 in experiment [7] was 18 µM (inactive); in [8] it was 21.3 µM; in [9], 22.3 µM (inactive); in experiment [10] it was 18.3 µM (inactive); in [11], 20.6 µM (inactive); in experiment [12] it was 18.2 µM (inactive). The GI50 in experiment [13] is 26.8 µM (inactive); in experiment [14], 20.7 µM (inactive); in experiment [15], 38.6 µM (inactive); in [16] it was 21.3 µM (inactive); in experiment [17], 16.4 µM (inactive); in experiment [18], 20 µM (inactive).

As for `CC(C)C(/N=C/c1ccccc1O)C(=O)O` (stereo unspecified), the GI50 in [1], in [2], in experiment [3], in [4], in experiment [5] and in [6] was > 100 µM (inactive) in each case. The GI50 in experiment [7] is > 100 µM (inactive); in [8], above 100 µM; in experiment [9], > 100 µM (inactive); in experiment [10], > 100 µM (inactive); in [11] it was 20.6 µM (inactive); in experiment [12], > 100 µM (inactive). Besides, the GI50 in experiment [13] was 59.2 µM (inactive); in experiment [14], > 100 µM (inactive); in experiment [15] it was > 100 µM (inactive); in experiment [16], > 100 µM (inactive); in [17] it was > 100 µM (inactive); in experiment [18], > 100 µM (inactive).

In the case of `c1ccc(CN2CCC(CNc3ncnc4ccccc34)C2)cc1` (stereo unspecified), the GI50 is 21.2 µM (inactive) in experiment [1]; 47.1 µM (inactive) in experiment [2]; > 100 µM (inactive) in experiment [3]; 34.8 µM (inactive) in experiment [4]; 50.2 µM (inactive) in experiment [5]; 51.5 µM (inactive) in [6]. The GI50 was > 100 µM (inactive) in [7]; above 100 µM in [8]; 9.02 µM (inactive) in [9]; 23 µM (inactive) in experiment [10]; 38.6 µM (inactive) in experiment [11]; > 100 µM (inactive) in experiment [12]. Further, the GI50 in experiment [13] is 58.5 µM (inactive); in experiment [14], 68.5 µM (inactive); in experiment [15], > 100 µM (inactive); in experiment [16], 25.1 µM (inactive); in experiment [18], 29.5 µM (inactive).

`N#Cc1ccc(N2CCOCC2)cc1`: the GI50 in experiment [1], in experiment [2], in [3], in experiment [4], in experiment [5] and in [6] was > 100 µM (inactive) in each case. Further, the GI50 in experiment [7] was > 100 µM (inactive); in [8] it was above 100 µM; in [10], 34.2 µM (inactive); in experiment [11], > 100 µM (inactive); in experiment [12] it was > 100 µM (inactive); in experiment [13] it was > 100 µM (inactive). For the same compound, the GI50 in experiment [14], in experiment [15], in experiment [16], in experiment [17] and in experiment [18] was > 100 µM (inactive) throughout.

In the case of `FC1(F)SC2CCCCCCCCCCC2C1(F)F` (stereo unspecified), the GI50 in [1] is 32.9 µM (inactive); in experiment [2], 37.6 µM (inactive); in experiment [3], > 100 µM (inactive); in experiment [4], 19.1 µM (inactive); in experiment [5], 20.2 µM (inactive); in experiment [6], 29.2 µM (inactive). Besides, the GI50 was 25.3 µM (inactive) in [7]; 42.5 µM in [8]; 59.7 µM (inactive) in [9]; 21.8 µM (inactive) in experiment [10]; 18.2 µM (inactive) in [11]; 36.1 µM (inactive) in experiment [13]. Further, the GI50 in experiment [15] is 35 µM (inactive); in [16] it was 35.5 µM (inactive); in [17], 20.5 µM (inactive); in experiment [18] it was 18.6 µM (inactive).
